Laboratory results published in patent publication US9051240B2, “Substituted 2-[2-(phenyl) ethylamino] alkaneamide derivatives and their use as sodium and/or calcium channel modulators” (Newron Pharmaceuticals S.P.A., priority 2007, dated 2015).
Where a name gives a salt, the structure may show the parent alone.

What follows are compounds tested on TTXs sodium channels (assay: TTXs-sodium channel influx assay (fluorescence, ND7/23 cell line)). Details: ND7/23 cells, veratridine 100 μM; read-out: Na+ influx IC50.
Type: cell-based, rat
Experimental: ND7/23 rat dorsal root ganglion-derived cell line endogenously expresses a mixed population of TTXs sodium channels. These cells lack of TTXr sodium channels as shown by the absence of their respective transcripts.
ND7/23 cells were grown in DMEM supplemented with 10% FBS and 1 mM sodium piruvate. The cells were seeded at 50,000 cells/well on 96 poly-L-lysine-coated plates and further incubated for 18-24 h before use.
The Membrane Potential Kit Assay (Molecular Devices), based on a negatively charged fluorescent dye able to monitor changes in membrane potential caused by the sodium influx due to the channel opening, was used for the assay.
Cells were incubated with the dye loading for 30 minutes at 25° C. Then, 100 nM of the toxin Anemonia sulcata (used as enhancer of the channel opener response) alone or in the presence of TTX (as reference standard) or test compound were added for further 15 minutes.
The fluorescence (excitation:530 nm, emission: 565 nm wavelength) was measured before and after (40-45 s) the automated injection of the sodium channel opener veratridine (100 μM) using a Victor plate reader (Perkin Elmer).
(§1) The inhibition curves were calculated from 5 concentrations, each in triplicate, and the IC50 determined using linear regression analysis.

Row | Compound | IC50 [µM]
1 | CCCCOc1cccc(CCNC(C)C(=O)N(C)C)c1.Cl (centres unmarked) [2-[2-(3-Butoxyphenyl)-ethylamino]-N,N-dimethylpropanamide hydrochloride] | 1.1
2 | CCCCOc1cccc(CCNCC(=S)N(C)C)c1 [2-[2-(3-Butoxyphenyl)-ethylamino]-N,N-dimethylthioacetamide hydrochloride] | 1.2
3 | CCCCOc1cccc(CCNCC(=O)N(CCC)CCC)c1 [2-[2-(3-Butoxyphenyl)-ethylamino]-N,N-dipropylacetamide hydrochloride] | 0.5
4 | CCCCCCOc1cccc(CCNCC(=O)N(C)C)c1.Cl [2-[2-(3-Hexyloxyphenyl)-ethylamino]-N,N-dimethylacetamide hydrochloride] | 0.5
5 | CCCCCOc1cccc(CCNCC(=O)N(CCC)CCC)c1 [2-[2-(3-Pentyloxyphenyl)-ethylamino]-N,N-dipropylacetamide hydrochloride] | 1.1

The compounds below were run against MAO-B (Rattus norvegicus (Rat), UniProt P19643) (assay: In vitro MAO-B enzyme activity assay (radioenzymatic, rat brain mitochondria)). Details: 14C-PEA 0.5 μM.
Type: biochemical
Experimental: Male Wistar rats (Harlan, Italy weighing 175-200 g) were sacrificed under light anaesthesia and brains were rapidly removed and homogenized in 8 volumes of ice-cold 0.32 M sucrose buffer containing 0.1 M EDTA, pH 7.4. The crude homogenate was centrifuged at 2220 rpm for 10 minutes and the supernatant recovered. The pellet was homogenized and centrifuged again. The two supernatants were pooled and centrifuged at 9250 rpm for 10 minutes at +4° C. The pellet was resuspended in fresh buffer and centrifuged at 11250 rpm for 10 minutes at +4° C. The resulting pellet was stored at −80° C. The enzyme activity was assessed with a radioenzymatic assay using the substrate ^14C-phenylethylamine (PEA) specific for MAO-B. The mitochondrial pellet (500 μg protein) was resuspended in 0.1 M phosphate buffer (pH 7.4). 200 μl of the suspension were added to a 50 μl solution of the test compound or buffer, and incubated for 30 min at 37° C. (preincubation) then the substrate (50 μl) was added. The incubation was carried out for 10 minutes at 37° C. (^14C-PEA, 0.5 μM). The reaction was stopped by adding 0.2 ml of perchloric acid. After centrifugation, the deaminated metabolites were extracted with 3 ml of toluene and the radioactive organic phase containing the neutral and/or acidic metabolites formed as a result of MAO-B activity was measured by liquid scintillation spectrometry at 90% efficiency. The MAO-B activity was expressed as nmoles of substrate transformed/mg protein/min.

Chain of MAO-B (P19643 whole entry): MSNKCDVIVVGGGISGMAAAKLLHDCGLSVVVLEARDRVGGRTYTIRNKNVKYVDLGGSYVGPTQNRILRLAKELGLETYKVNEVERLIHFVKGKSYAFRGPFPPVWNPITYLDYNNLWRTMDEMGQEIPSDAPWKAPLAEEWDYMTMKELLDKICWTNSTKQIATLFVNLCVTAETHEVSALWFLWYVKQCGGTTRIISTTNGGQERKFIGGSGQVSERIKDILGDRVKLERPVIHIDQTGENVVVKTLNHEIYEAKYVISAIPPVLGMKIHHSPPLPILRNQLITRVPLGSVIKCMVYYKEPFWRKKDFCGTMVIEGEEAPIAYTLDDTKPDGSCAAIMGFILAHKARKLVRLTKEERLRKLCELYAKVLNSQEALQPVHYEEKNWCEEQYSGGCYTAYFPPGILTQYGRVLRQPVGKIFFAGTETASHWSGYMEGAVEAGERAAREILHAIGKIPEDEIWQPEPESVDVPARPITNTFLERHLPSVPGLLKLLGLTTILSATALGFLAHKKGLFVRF

Row | Compound | IC50 [µM]
6 | CCCCOc1cc(CCNCC(=O)N(C)C)ccc1OC [2-[2-(3-Butoxy-4-methoxyphenyl)-ethylamino]-N,N-dimethylacetamide hydrochloride] | > 300
7 | CCCCOc1cccc(CCNC(C)C(=O)N(C)C)c1.Cl (centres unmarked) [2-[2-(3-Butoxyphenyl)-ethylamino]-N,N-dimethylpropanamide hydrochloride] | > 300
8 | CCCCOc1cccc(CCNCC(=O)NC)c1.Cl [2-[2-(3-Butoxyphenyl)-ethylamino]-N-methylacetamide hydrochloride] | 110

Each compound was assayed on L-type calcium channels (assay: Calcium channel influx assay (fluorescence, AtT20 cell line)). Details: AtT20 cells, 100 mM KCl depolarization; read-out: Ca++ influx IC50.
Type: cell-based, mouse
Experimental: AtT20/D16v-F2 mouse pituitary tumour cell line preferentially expresses L-type calcium channels.
AtT20 cells were grown in DMEM with 10% of FBS, 4 mM glutamine. The cells were seeded at 200,000 cells/well on 96 poly-L-lysine-coated plates and further incubated for 18-24 h, before use.
The Ca^++ Kit Assay (Molecular Devices), which is based on a fluorescent calcium indicator to detect the calcium influx determined by depolarizing conditions, was used for the assay.
Cells were incubated with the calcium dye loading for 30 min at 37° C. Then, ω-conotoxin alone (1 μM) or in presence of nifedipine (as reference standard) or test compound were added for further 15 min.
The fluorescence (excitation: 485-emission: 535 nm wavelength) was measured before and after (30-40 sec) the automated injection of 100 mM KCl depolarizing solution using a Victor plate reader (Perkin Elmer).
as §1

Row | Compound | IC50 [µM]
9 | CCCCOc1cccc(CCNCC(=S)N(C)C)c1 [2-[2-(3-Butoxyphenyl)-ethylamino]-N,N-dimethylthioacetamide hydrochloride] | 7.6
10 | CCCCOc1cccc(CCNCC(=O)N(CCC)CCC)c1 [2-[2-(3-Butoxyphenyl)-ethylamino]-N,N-dipropylacetamide hydrochloride] | 1.1
11 | CCCCSc1cccc(CCNCC(=O)N(C)C)c1 [2-[2-(3-Butylthiophenyl)-ethylamino]-N,N-dimethylacetamide hydrochloride] | 7.2
12 | CCCCCCOc1cccc(CCNCC(=O)N(C)C)c1.Cl [2-[2-(3-Hexyloxyphenyl)-ethylamino]-N,N-dimethylacetamide hydrochloride] | 4
13 | CCCCCOc1cccc(CCNCC(=O)N(CCC)CCC)c1 [2-[2-(3-Pentyloxyphenyl)-ethylamino]-N,N-dipropylacetamide hydrochloride] | 6.9
14 | CN(C)C(=O)CNCCc1cccc(OCCCC(F)(F)F)c1 [2-{2-[3-(4,4,4-Trifluorobutoxy)phenyl]-ethylamino}-N,N-dimethylacetamide hydrochloride] | 9.3

What follows are compounds tested on mice (assay: Maximal electroshock test (MES) in mice). Details: Mus musculus, po; mice, MES, p.o.; read-out: ED50 (mg/kg p.o.).
Type: in vivo
Source text: The maximal electroshock test (MES) is used commonly in the screening of anti-epileptic drugs in rodent models.
Animals and Apparatus: Male CD1 mice weighing 25 g were used. The procedure described by White et al. (White H. S., Woodhead J. H., Franklin M. R., Swinyard E. A., and Wolf H. H. Antiepileptic Drugs (1995) 4th ed: 99-110, Raven Press, Ltd., New York) was followed. An Ugo Basile electroconvulsive generator (Model ECT UNIT 7801) was used to deliver an electrical stimulus sufficient to produce a hindlimb tonic extensor response in at least 97% of control animals. The stimulus was delivered intra-aurally through clip electrodes in mice (0.7 s of a 40 mA shock, with a pulse train of 80 Hz having a pulse duration of 0.4 ms). The acute effect of compounds administered intraperitoneally (i.p.), subcutaneously (s.c.), intravenously (i.v.) or orally (p.o.) 5-120 minutes before MES induction were examined and compared with a vehicle control group. Ten mice were studied per group. Complete suppression of the hindlimb tonic extensor component of seizures was taken as evidence of anticonvulsant activity.
The compounds of the invention were administered p.o. or i.v., at the doses of 0.1-100 mg/kg.

Row | Compound | ED50 [mg/kg]
15 | CCCCOc1cccc(CCNC(C)C(=O)N(C)C)c1.Cl (centres unmarked) [2-[2-(3-Butoxyphenyl)-ethylamino]-N,N-dimethylpropanamide hydrochloride] | 6.5
16 | CCCCOc1cccc(CCNCC(=O)NC)c1.Cl [2-[2-(3-Butoxyphenyl)-ethylamino]-N-methylacetamide hydrochloride] | 12.1
17 | CCCCCCOc1cccc(CCNCC(=O)N(C)C)c1.Cl [2-[2-(3-Hexyloxyphenyl)-ethylamino]-N,N-dimethylacetamide hydrochloride] | 4.6

Same assay, conditions: mice, MES, 10 mg/kg p.o.

Row | Compound | % protection 10 mg/kg p.o. [%]
18 | CCCCOc1cccc(CCNC(C)C(=O)N(C)C)c1.Cl (centres unmarked) [2-[2-(3-Butoxyphenyl)-ethylamino]-N,N-dimethylpropanamide hydrochloride] | 60
19 | CCCCOc1cccc(CCNCC(=O)NC)c1.Cl [2-[2-(3-Butoxyphenyl)-ethylamino]-N-methylacetamide hydrochloride] | 30
20 | CCCCCCOc1cccc(CCNCC(=O)N(C)C)c1.Cl [2-[2-(3-Hexyloxyphenyl)-ethylamino]-N,N-dimethylacetamide hydrochloride] | 100
